# Test results taken from patent publication US9186344B2, “Glycogen or polysaccharide storage disease treatment method” (Baylor Research Institute, priority 2004, dated 2015).
# Key:
# [1] = system: Adult-Onset Glycogen Storage Disease II (Pompe's) patient; experiment: Plasma amino acids during initiation of anaplerotic therapy (C7 diet), Example 1 patient; type: in vivo, human; settings: for Plasma ASPARTATE: normal (0-10); for Plasma CITRULLINE: normal (11-51); for Plasma ARGININE: normal (20-122); for Plasma TRYPTOPHAN: normal (23-86); for Plasma TYROSINE: normal (30-100); for Plasma PHENYLALANINE: normal (35-83); for Plasma ORNITHINE: normal (36-118); for Plasma ISOLEUCINE: normal (39-119); for Plasma LEUCINE: normal (60-204); for Plasma VALINE: normal (108-295); for Plasma ALANINE: normal (162-572); for Plasma GLUTAMINE: normal (424-720); for Plasma Total Amino Acids: normal (1540-4415)
# Excerpt: Clinical and Biochemical Course on Therapy. […] Esophageal dysmotility was documented. A percutaneous endoscopic gastrostomy (PEG) was placed on the sixth hospital day.
# The diet was based on vivonex and ˜1500 Kcal was given by nasogastric tube, on admission. […] Total caloric intake was raised from ˜1500 to 1700 to 1900 per day with these dietary changes during […] 33 day admission.
# The levels of Alanine and Glutamine were low compared to the adult normal ranges. While the levels of the branched-chain amino acids (BCAA=Leucine, Valine, & Isoleucine) were within the adult normal ranges. The reduced levels of Alanine and Glutamine have been observed often in this disease and has led to the high protein—low carbohydrate diet and/or alanine supplementation. […] Glutamine increased nearly 2-fold as did the branched chain amino acids (BCAAs). The levels of these amino acids remained in the normal range while receiving the C7 diet. However, the diet was interrupted on day 4 & 5 while awaiting placement of the PEG for gastrostomy feeding. The levels of each of these amino acids promptly fell to admission levels (Table 2: 65 & 84 hour samples). With resumption of the diet via gastrostomy, all levels returned to (or above) the normal ranges in 24 hours. These amino acid levels remained normal on this odd-carbon triglyceride diet therapy.
# [2] = system: adult-onset GSD II patient; experiment: Urinary organic acids / blood acylcarnitines, Example 1 patient; type: in vivo, human; settings: C7 increased from 26 to 40% of total caloric intake (1.0 to 2.0 gm/Kg/day)
# Method: Organic Acids may be measured as follows. Organic acids in urine specimens are determined with isolation by Liquid Partition Chromatography (LPC) and quantitative Gas Chromatography-Mass Spectrometry (GCMS) using an internal standard. The specimen is derivatized to form pentafluorobenzyl oximes (PFBO) of oxo-acids and the organic acids isolated by Liquid Partition chromatography on silicic acid hydrated with dilute sulfuric acid and eluted with mixtures of tert-Amyl alcohol and chloroform. After drying, the organic acids are derivatized to form volatile trimethylsilyl (TMS) derivatives for separation by capillary Gas Chromatography (GC) with temperature programming. Detection is by Mass Spectrometry (MS) with identification of the organic acids by their mass spectra. Organic acids are quantified by peak areas of reconstructed ion chromatograms with internal standards and calibration curves.
# Acylcarnitine Profiles. […] An automated sample introduction system delivers the samples to the electrospray tandem mass spectrometer (ESI-MS/MS) operating in the multiple channel analysis mode in which acylcarnitines are identified, profiled, and quantified with stable isotopically labeled internal standards. This test also provides quantification of free, sum of acylcarnitines, and total carnitine levels. […]
# [3] = thirteen hours after initiating the C7 diet
compound,measurement,setting,value
"CCCCCCC(=O)OCC(COC(=O)CCCCCC)OC(=O)CCCCCC [C7, triheptanoin]",Plasma ASPARTATE,"[1]; 13 hrs, C7 = 1.0 gm/Kg",44 µM
same,Plasma CITRULLINE,"[1]; 13 hrs, C7 = 1.0 gm/Kg",1 µM
same,Plasma ARGININE,"[1]; 13 hrs, C7 = 1.0 gm/Kg",96 µM
same,Plasma TRYPTOPHAN,"[1]; 13 hrs, C7 = 1.0 gm/Kg",121 µM
same,Plasma TYROSINE,"[1]; 13 hrs, C7 = 1.0 gm/Kg",110 µM
same,Plasma PHENYLALANINE,"[1]; 13 hrs, C7 = 1.0 gm/Kg",101 µM
same,Plasma ORNITHINE,"[1]; 13 hrs, C7 = 1.0 gm/Kg",78 µM
same,Plasma ISOLEUCINE,"[1]; 13 hrs, C7 = 1.0 gm/Kg",81 uM/L
same,Plasma LEUCINE,"[1]; 13 hrs, C7 = 1.0 gm/Kg",154 uM/L
same,Plasma VALINE,"[1]; 13 hrs, C7 = 1.0 gm/Kg",333 uM/L
same,Plasma ALANINE,"[1]; 13 hrs, C7 = 1.0 gm/Kg",551 uM/L
same,Plasma GLUTAMINE,"[1]; 13 hrs, C7 = 1.0 gm/Kg",827 uM/L
same,Plasma Total Amino Acids,"[1]; 13 hrs, C7 = 1.0 gm/Kg",3673 µM
same,Plasma ASPARTATE,"[1]; 41 hrs, C7 = 1.0 gm/Kg",112 µM
same,Plasma CITRULLINE,"[1]; 41 hrs, C7 = 1.0 gm/Kg",43 µM
same,Plasma ARGININE,"[1]; 41 hrs, C7 = 1.0 gm/Kg",93 µM
same,Plasma TRYPTOPHAN,"[1]; 41 hrs, C7 = 1.0 gm/Kg",43 µM
same,Plasma TYROSINE,"[1]; 41 hrs, C7 = 1.0 gm/Kg",62 µM
same,Plasma PHENYLALANINE,"[1]; 41 hrs, C7 = 1.0 gm/Kg",156 µM
same,Plasma ORNITHINE,"[1]; 41 hrs, C7 = 1.0 gm/Kg",163 µM
same,Plasma ISOLEUCINE,"[1]; 41 hrs, C7 = 1.0 gm/Kg",138 uM/L
same,Plasma LEUCINE,"[1]; 41 hrs, C7 = 1.0 gm/Kg",266 uM/L
same,Plasma VALINE,"[1]; 41 hrs, C7 = 1.0 gm/Kg",384 uM/L
same,Plasma ALANINE,"[1]; 41 hrs, C7 = 1.0 gm/Kg",450 uM/L
same,Plasma GLUTAMINE,"[1]; 41 hrs, C7 = 1.0 gm/Kg",424 uM/L
same,Plasma Total Amino Acids,"[1]; 41 hrs, C7 = 1.0 gm/Kg",4160 µM
same,Plasma ASPARTATE,"[1]; 108 hrs, C7 = 1.5 gm/Kg",50 µM
same,Plasma CITRULLINE,"[1]; 108 hrs, C7 = 1.5 gm/Kg",35 µM
same,Plasma ARGININE,"[1]; 108 hrs, C7 = 1.5 gm/Kg",102 µM
same,Plasma TRYPTOPHAN,"[1]; 108 hrs, C7 = 1.5 gm/Kg",40 µM
same,Plasma TYROSINE,"[1]; 108 hrs, C7 = 1.5 gm/Kg",56 µM
same,Plasma PHENYLALANINE,"[1]; 108 hrs, C7 = 1.5 gm/Kg",90 µM
same,Plasma ORNITHINE,"[1]; 108 hrs, C7 = 1.5 gm/Kg",122 µM
same,Plasma ISOLEUCINE,"[1]; 108 hrs, C7 = 1.5 gm/Kg",144 uM/L
same,Plasma LEUCINE,"[1]; 108 hrs, C7 = 1.5 gm/Kg",238 uM/L
same,Plasma VALINE,"[1]; 108 hrs, C7 = 1.5 gm/Kg",304 uM/L
same,Plasma ALANINE,"[1]; 108 hrs, C7 = 1.5 gm/Kg",307 uM/L
same,Plasma GLUTAMINE,"[1]; 108 hrs, C7 = 1.5 gm/Kg",584 uM/L
same,Plasma Total Amino Acids,"[1]; 108 hrs, C7 = 1.5 gm/Kg",3568 µM
same,Plasma ASPARTATE,"[1]; 132 hrs, C7 = 1.5 gm/Kg",42 µM
same,Plasma CITRULLINE,"[1]; 132 hrs, C7 = 1.5 gm/Kg",25 µM
same,Plasma ARGININE,"[1]; 132 hrs, C7 = 1.5 gm/Kg",97 µM
same,Plasma TRYPTOPHAN,"[1]; 132 hrs, C7 = 1.5 gm/Kg",40 µM
same,Plasma TYROSINE,"[1]; 132 hrs, C7 = 1.5 gm/Kg",46 µM
same,Plasma PHENYLALANINE,"[1]; 132 hrs, C7 = 1.5 gm/Kg",84 µM
same,Plasma ORNITHINE,"[1]; 132 hrs, C7 = 1.5 gm/Kg",95 µM
same,Plasma ISOLEUCINE,"[1]; 132 hrs, C7 = 1.5 gm/Kg",128 uM/L
same,Plasma LEUCINE,"[1]; 132 hrs, C7 = 1.5 gm/Kg",220 uM/L
same,Plasma VALINE,"[1]; 132 hrs, C7 = 1.5 gm/Kg",269 uM/L
same,Plasma ALANINE,"[1]; 132 hrs, C7 = 1.5 gm/Kg",277 uM/L
same,Plasma GLUTAMINE,"[1]; 132 hrs, C7 = 1.5 gm/Kg",519 uM/L
same,Plasma Total Amino Acids,"[1]; 132 hrs, C7 = 1.5 gm/Kg",3296 µM
same,time to restoration of Alanine and Glutamine deficits,"[1]; FIG. 5, Triheptanoin diet only",≤ 13 h
same,time for amino acid levels to return to (or above) normal ranges,[1]; after resumption of the diet via gastrostomy,≤ 24 h
same,increase of plasma Glutamine,[1]; [3],~2 fold
same,increase of plasma branched chain amino acids (BCAAs),[1]; [3],~2 fold
same,increase of plasma alanine level,[1]; thirteen hours after initiating the C7 diet by nasogastric tube,4 fold
same,propionyl overload from the metabolism of heptanoate,[2],without any evidence for propionyl overload
